Results published in patent US20170340544A1, “COSMETIC COMPOSITION FOR IMPROVING HEALTH OF SCALP AND METHOD OF PREPARING THE SAME” (OLIPASS Cosmeceuticals Company, priority 2016, published 2017).
Ends that are not written are not given here.

Legend:
[1] = Cytotoxicity (MTT) of oligopeptide in HaCaT human keratinocytes; assay type: cell-based; details: 24 hr, MTT absorbance 570 nm as percentage of pure water control
Procedure: (§1) In order to evaluate the stability of the oligopeptide prepared in Preparation Example 1 when applied to humans, irritation of the skin and scalp due to cytotoxicity was measured using a HaCaT cell line as human keratinocytes.
(§2) The HaCaT cell line used therefor was incubated at 37° C. in a […] incubator. When the extent of incubation arrived at 85 to 90% of the area of a culture vessel, the cells were detached with trypsin, counted, and subjected to subculture at 5×10^3 cells/cm^2.
(§3) For cell culture, a Dulbecco's Modified Eagle Medium (DMEM, GIBCO, Cat. No. 11995-065, USA), containing 10% fetal bovine serum (FBS, GIBCO, Cat. No., 26140-079, USA), 100 U/ml penicillin, and 100 μg/ml streptomycin, was used. For subculture, a 75 T-flask (NUNC, Cat. No. 156499, Denmark) was used, and the cytotoxicity test was carried out using a 24-well plate (NUNC, Cat. No. 142475, Denmark).
(§4) The human keratinocytes were counted at 5×10^3 cells/well each and then aliquoted into the 24-well plate using a hemocytometer. These cells were incubated in DMEM containing 10% FBS for 48 hr. When the extent of incubation arrived at 40 to 50% of the surface area of the culture vessel, the medium was replaced with FBS-free DMEM containing each of 50 ppm oligopeptide and 100 ppm oligopeptide, and culture was further conducted for 24 hr. Thereafter, 50 μl of a 3-(4,5-dimethylthiazol-2-yl)-2,5-diphenyl tetrazolium bromide (MTT, Sigma M5655, USA) solution (2.5 mg/ml) was added and culture was further performed for 3 hr. Then, the cell culture broth was discarded, 200 μl of dimethyl sulfoxide (DMSO, Sigma D2650, USA) was added to each well and shaken, 100 μl thereof was transferred into a 96-well plate, and the absorbance thereof was measured at 570 nm using an Enzyme-Linked Immunosorbent Assay (ELISA).
(§5) The cytotoxicity was represented as a percentage based on the absorbance intensity of a control using pure water.

[2] = system: HaCaT cell line; assay: as above; assay type: cell-based; details: 50 ppm and 100 ppm oligopeptide
Procedure: as §1, §2, §3, §4, §5

Q: For “GQQKRSDRLNLSR-OH [Oligopeptide, Gly-Gln-Gln-Lys-Arg-Ser-Asp-Arg-Leu-Asn-Leu-Ser-Arg]”, which viability ([1]; 50 ppm oligopeptide) is on record?
A: 93%

Q: What about the viability ([1]; 100 ppm oligopeptide) of the same substance?
A: 81%

Q: And the “cytotoxicity compared to the control” value [2]?
A: no cytotoxicity
